# What was measured:
# NCI-H1648 = assay: Cell viability (CellTiterGlo) combination dose matrix in NCI-H1648; assay type: cell-based, human; conditions: combination with c-Met inhibitor, 72 h, excluding highest concentration
# Experimental: (§1) Compound stocks of both compounds are individually prepared in DMSO. Compounds are serially diluted using a Tecan dispenser to cover a ˜1000× range of concentrations. […] Both single agent and combinations are tested at multiple concentrations, along with controls and one self-cross.
# (§2) The cell lines used in this study are purchased from American Type Cell Collection, including human non small cell lung cancer cell lines EBC-1 (which bears c-Met amplification), NCI-H1993 (which bears c-MET amplified), NCI-H1648 (which bears c-Met amplification), NCI-H1573 (which bears c-Met amplification and KRAS mutation) and HCC2935 (EGFR mutation). All cell lines are maintained in their respective culture medium as specified by the provider.
# (§3) For the assessment of combination effects, cells are seeded into 384-well plates at 500 cells/well and incubated overnight. […]
# (§4) Effects of single agents as well as their combination on cell viability is assessed after 72 hours of incubation at 37° C./5% CO2 by quantification of cellular ATP levels (CellTiterGlo, Promega) using 25 μL reagent/well and n=2 replicate plates per condition. The number/viability of cells at time of compound addition is likewise assessed and used to estimate the population doubling time of a cell line.
# (§5) For untreated and treated levels U and T, inhibition is calculated using the formula I=1−T/U, which ranges from 0% to 100% for complete inhibition. […]
# (§6) The Loewe expectation [Loewe S., Ergebn Physiol 27: 47-187 (1928)) is calculated at each dose pair CX,Y by finding the inhibition ILoewe such that (CX/ICX)+(CY/ICY)=1, and ICX,Y are the effective concentrations at ILoewe for the fitted single agent curves, using numerical optimization [Berenbaum M C, J Theor Biol 114: 413-431 (1985)]. The “synergy score” S is calculated by averaging the difference between Idata and ILoewe across all the tested combination dose points, excluding the highest concentration point in the dose matrix, which is most likely to be dominated by drug off-target effects. […]
# U-87 MG = assay: CellTiter-Glo cell viability dose matrix in U-87 MG glioblastoma cells; assay type: cell-based, human; conditions: U87 MG (PTEN mutant, HGF expressing)
# Experimental: (§7) The PI3K inhibitor COMPOUND C and the c-MET receptor tyrosine kinase inhibitor 2-fluoro-N-methyl-4-[7-quinolin-6-yl-methyl)-imidazo[1,2-b][1,2,4]triazin-2yl]benzamide are evaluated in combination in glioblastoma tumor models. COMPOUND C (10 mM) and 2-fluoro-N-methyl-4-[7-quinolin-6-yl-methyl)-imidazo[1,2-b][1,2,4]triazin-2yl]benzamide (10 mM) are dissolved in DMSO, and are stored in aliquots at −20° C.
# (§8) Human Glioblastoma cell lines, U-87 MG (PTEN mutant and HGF expressing line), H4 (PTEN mutant and HGF expressing line), A172 (PTEN mutant line with low HGF expression level) and LN-229 (PTEN wildtype and HGF low) are purchased from American Type Cell Collection and are maintained in a humidified incubator at 37° C. in 5% CO2 in recommended media. All four cell lines express detected MET at the mRNA level.
# (§9) The cells are passaged twice a week and the medium is changed every 2 to 3 days. […]
# (§10) Cell viability is determined by measuring cellular ATP content using the CellTiter-Glo® (CTG) luminescent cell viability assay (Promega). […] An equal volume of the CTG reagents is added to each well at the end of the compound treatment and luminescence is recorded on an Envision plate reader (Perkin Elmer). Reduced and enhanced luminescent signal values (responses) are calculated relative to untreated (control) cells. […]
# A172 = assay: CellTiter-Glo cell viability dose matrix in A172 glioblastoma cells; assay type: cell-based, human; conditions: A172 (PTEN mutant, low HGF)
# Experimental: as §7, §8, §9, §10
# EBC-1 = assay: Cell viability (CellTiterGlo) combination dose matrix in EBC-1; assay type: cell-based, human; conditions: combination with c-Met inhibitor, 72 h, excluding highest concentration, 0 no inhibition, 1 = 100% inhibition/stasis, 2 = cell death
# Experimental: as §1, §2, §3, §4, §5, §6
# HCC2935 = assay: Cell viability (CellTiterGlo) combination dose matrix in HCC2935; assay type: cell-based, human; conditions: combination with c-Met inhibitor, 72 h, excluding highest concentration
# Experimental: as §1, §2, §3, §4, §5, §6
# [1] = tested on: U-87 MG human glioblastoma xenograft; assay: U-87 MG xenograft tumor growth inhibition and tumor growth delay; assay type: in vivo, nude mice; conditions: for T/C or T/T0: D13
# Experimental: In this experiment, the U-87 MG human glioblastoma xenograft model is used to assess the anti-tumor efficacy of the PI3K inhibitor COMPOUND C and c-Met inhibitor 2-fluoro-N-methyl-4-[7-quinolin-6-yl-methyl)-imidazo[1,2-b][1,2,4]triazin-2yl]benzamide as single agents or in combination. U-87 MG tumor cells obtained from the National Cancer Institute are reported to be homozygous for likely oncogenic variants of CDKN2A, CDKN2C, CDKN2a, and PTEN; no mutations are detected in MET, PIK3CA, or 58 other genes that are frequently altered in neoplastic cells; and HGF expressing.
# Mice are treated daily for 21 days with 17.7 and 35.3 mg/kg of the c-Met inhibitor and 32.7 mg/kg COMPOUND C monotherapies, and with the c-Met inhibitor/COMPOUND C dual therapy at 17.7:32.7. An c-Met inhibitor/COMPOUND C combination at the 58.8:5.4 mg/kg dose ratio was included in the study. The control mice received both vehicles, and a standard preclinical temozolomide regimen monitored tumor model performance. The oral treatments began on Day 1 (D1) in nude mice with established subcutaneous tumors. Each animal was euthanized when its tumor reached the predetermined 2000 mm3 endpoint volume, or on D60, whichever came first. The study was terminated on D51. […] Overall efficacy was determined from the times required for tumors to progress to the volume endpoint, and from D51 survival and regression rates. This report describes the methods and results of the U87MG-e326 tumor growth delay experiment.
# The animals are fed ad libitum water (reverse osmosis, 1 ppm CI) and NIH 31 Modified and Irradiated Lab Diet® consisting of 18.0% crude protein, 5.0% crude fat, and 5.0% crude fiber. The mice are housed on irradiated Enrich-O'cobs™ Laboratory Animal Bedding in static microisolators on a 12-hour light cycle at 20-22° C. (68-72° F.) and 40-60% humidity.
# The U-87 MG tumor line is obtained from the American Type Culture Collection and maintained by serial engraftment in nude mice. A tumor fragment (1 mm^3) is implanted subcutaneously into the right flank of each test mouse. Tumors are calipered in two dimensions to monitor growth as their mean volume approached the desired 100-150 mm^3 range. Tumor size, in mm^3, was calculated from: Tumor Volume=(width^2×length)/2, where width and length (in mm) are measurements of the tumor. Tumor weight can be estimated with the assumption that 1 mg is equivalent to 1 mm^3 of tumor volume. Fourteen days after tumor cell implantation, on D1 of the study, mice with individual tumor volumes of 63-196 mm^3 are sorted into seven groups, with group mean tumor volumes of 122-127 mm^3.
# The c-Met inhibitor 2-fluoro-N-methyl-4-[7-quinolin-6-yl-methyl)-imidazo[1,2-b][1,2,4]triazin-2yl]benzamide (di-HCl salt, 84.98% free base) is stored at 4° C. and is added to deionized water at 2× the final concentration and sonicated until dissolved. An equal volume of 0.5% methylcellulose and 0.1% Tween® 80 in deionized water is added to provide a 5.884 mg/mL dosing solution in 0.25% methylcellulose and 0.05% Tween® 80 in deionized water (Vehicle 1). Portions of this solution are diluted with Vehicle 1 to provide 3.53 and 1.765 mg/mL dosing solutions.
# COMPOUND C (HCl salt, 91.85% free base) is stored at −20° C. and is added to 1% Tween® 80 in deionized water and sonicated to obtain a uniform suspension at 2× the final concentration. […] The 0.544 mg/mL dosing suspension is obtained by diluting a portion of the first suspension with Vehicle 2.
# NCI-H1993 = assay: Cell viability (CellTiterGlo) combination dose matrix in NCI-H1993; assay type: cell-based, human; conditions: combination with c-Met inhibitor, 72 h, excluding highest concentration
# Experimental: as §1, §2, §3, §4, §5, §6
# LN-229 = assay: CellTiter-Glo cell viability dose matrix in LN-229 glioblastoma cells; assay type: cell-based, human; conditions: LN229 (PTEN wildtype, HGF low)
# Experimental: as §7, §8, §9, §10
# NCI-H1573 = assay: Cell viability (CellTiterGlo) combination dose matrix in NCI-H1573; assay type: cell-based, human; conditions: combination with c-Met inhibitor, 72 h, excluding highest concentration
# Experimental: as §1, §2, §3, §4, §5, §6
# H4 = assay: CellTiter-Glo cell viability dose matrix in H4 glioblastoma cells; assay type: cell-based, human; conditions: H4 (PTEN mutant, HGF expressing)
# Experimental: as §7, §8, §9, §10
# [2] = COMPOUND C 32.7 mg/kg (30 mg/kg free base) p.o. qd x21
compound,measurement,setting,value
"Nc1cc(C(F)(F)F)c(-c2cc(N3CCOCC3)nc(N3CCOCC3)n2)cn1 [COMPOUND C, 5-(2,6-di-morpholin-4-yl-pyrimidin-4-yl)-4-trifluoromethyl-pyridin-2-ylamine]","MaxGI (GImax, combination effectiveness)",NCI-H1648,1.78
same,anti-proliferative activity (single agent),U-87 MG,concentration dependent anti-proliferative activity
same,anti-proliferative activity (single agent),A172,concentration dependent anti-proliferative activity
same,"MaxGI (GImax, combination effectiveness)",EBC-1,1.83
same,"MaxGI (GImax, combination effectiveness)",HCC2935,1.37
same,increase of median TTE,[1]; COMPOUND C 30 mg/kg free base p.o. qd x21,9.3 days
same,% TGD,[1]; [2],79%
same,T/C or T/T0,[1]; [2],31%
same,T/C or T/T0,"[1]; COMPOUND C 32.7 mg/kg (30 mg/kg free base) p.o. qd x21, listed as CMPD. C",31%
same,Median TTE,"[1]; COMPOUND C 32.7 mg/kg (30 mg/kg free base) p.o. qd x21, endpoint 2000 mm3",21.0 days
same,Regress.,"[1]; COMPOUND C 32.7 mg/kg p.o. qd x21, number of animals",0
same,"MaxGI (GImax, combination effectiveness)",NCI-H1993,1.67
same,anti-proliferative activity (single agent),LN-229,less active
same,"MaxGI (GImax, combination effectiveness)",NCI-H1573,1.54
same,anti-proliferative activity (single agent),H4,concentration dependent anti-proliferative activity

# — US20150216870A1, “Combination of PI3K Inhibitor and C-Met Inhibitor” (Novartis AG, priority 2012, published 2015)
